Measurements published in patent US9700578B2, “Use of nitrite salts for the treatment of cardiovascular conditions” (The United States of America as represented by the …, priority 2003, dated 2017).
Values joined by “and” are separate entries in the source; they are usually repeats but may differ in a detail not shown here. Identical values can stand only once. Like-named read-outs stand apart in the source and are kept apart here.

Assays:
[1] = system: hypoxic-induced pulmonary hypertension; experiment: Comparison of inhaled nitrite and NO gas during hypoxic-induced pulmonary vasoconstriction: efficacy and duration; type: in vivo, newborn lambs; settings: for reduction (correction) of hypoxic-induced pulmonary hypertension: hypoxia, NO gas 20 ppm or nitrite aerosol for 20 minutes
Description: NO gas was introduced into the inspiratory limb of the breathing circuit. The inspired concentration of NO was continuously measured by chemiluminescence (CLD 700 AL, Eco Physics Inc, Ann Arbor, Mich.) in the inspiratory limb of the ventilator loop.
efficacy and duration of effect. This protocol was designed to compare the efficacy of nitrite with the clinical standard, 20 ppm inhaled NO gas. […] A second purpose was to determine the duration of effect of a short nitrite nebulization versus NO gas inhalation on hemodynamic and physiological measurements during prolonged hypoxic-induced pulmonary vasoconstriction. After baseline measurements were performed, the lambs were made hypoxic as described above for 35 minutes. Ten minutes after initiation of hypoxia, a 20-minute period of NO gas inhalation was initiated (20 ppm), with continuation of hypoxia for 5 minutes after cessation of NO gas delivery. Lambs were then allowed to recover for one hour. Again, after baseline measurements were made, a second 90-minute period of hypoxia was initiated.

[2] = system: hepatic ischemia-reperfusion injury; experiment: Hepatic ischemia-reperfusion (I/R) injury; type: in vivo, mice
Protocol: Carboxy-PTIO [2-(4-Carboxyphenyl)-4,4,5,5-tetramethylimidazoline-1-oxyl-3-oxide potassium salt], a direct intravascular NO scavenger, was utilized to inhibit NO dependent effects following hepatic I/R injury. Carboxy-PTIO (Alexis Biochemicals) was dissolved in phosphate buffered saline and administered intravenously at a dose of 1 mg/Kg in a volume of 50 μL at 30 minutes prior to hepatic ischemia Zinc(II) Deuteroporphyrin IX-2,4-bisethyleneglycol (ZnDBG) (Alexis Biochemicals), a heme oxygenase-1 inhibitor was injected i.p. at a dose of 10 mg/Kg in a volume of 50 μL at 30 minutes prior to the induction of hepatic ischemia.
All of the mice utilized in the present studies were C57BL6/J at 8-10 weeks of age obtained from the Jackson Laboratories (Bar Harbor, Me.). In additional experiments of hepatic I/R injury we utilized mice completely deficient (−/−) in endothelial nitric oxide synthase (eNOS). eNOS−/− mice were originally generously donated from Dr. Paul Huang (Mass. General Hospital) and generated in our breeding colony at LSU-Health Sciences Center. eNOS−/− mice were utilized at 8-10 weeks of age.
The hepatic I/R protocol is depicted in FIG. 6A and has been described previously (Hines et al., Biochem Biophys Res Commun 284:972-976, 2001; Hines et al., Am J Physiol Gastrointest Liver Physiol 284:G536-545, 2001). Mice were anesthetized with the combination of ketamine (100 mg/kg) and zylazine (8 mg/kg) and a midline laparotomy was performed to expose the liver. Mice were then injected with heparin (100 μg/kg, i.p.) to prevent blood clotting. The left lateral and median lobes of the liver were rendered ischemic by completely clamping the hepatic artery and the portal vein using microaneurysm clamps. This experimental model results in a segmental (70%) hepatic ischemia. This method of partial ischemia prevents mesenteric venous congestion by allowing portal decompression throughout the right and caudate lobes of the liver. The liver was then repositioned in the peritoneal cavity in its original location for 45 minutes. The liver was kept moist using gauze soaked in 0.9% normal saline. In addition, body temperature was maintained at 37° C. using a heat lamp and monitoring body temperature with a rectal temperature probe. Sham surgeries were identical except that hepatic blood flow was not reduced with a microaneurysm clamp. The duration of hepatic ischemia was 45 minutes in all experiments, following which the microaneurysm clamps were removed. The duration of hepatic reperfusion was 5 hours in the studies of serum liver transaminase levels (i.e., AST or ALT) and 24 hours for the studies of liver histopathology (such as hepatocellular infarction).
Serum samples were analyzed for aspartate aminotransferase (AST) and alanine aminotransferase (ALT) using a spectrophotometric method (Sigma Chemical Co., St. Louis, Mo.) (Harada et al., Proc Natl Acad Sci USA 100:739-744, 2003). These enzymes are liver specific and are released from the liver during injury (Hines et al., Biochem Biophys Res Commun 284:972-976, 2001; Hines et al., Am J Physiol Gastrointest Liver Physiol 284:G536-545, 2001). […]

[3] = system: hypoxic-induced pulmonary hypertension; settings: for decrease in pulmonary artery pressure from hypoxic level: FiO2 0.12, nebulized 270 μmol/minute for 20 minutes, n=7
hemoglobin = hemoglobin (Homo sapiens, UniProt P68871+P69905)
[4] = system: U46619-induced normoxic pulmonary hypertension; type: in vivo; settings: normoxic, U46619 infusion, nebulized nitrite, n=6
[5] = system: deoxygenated erythrocytes
[6] = 48 nmoles of nitrite, n=3; before 594±83
deoxyhemoglobin = deoxyhemoglobin (Homo sapiens, UniProt P68871+P69905); settings: 25° C., pH 7.0; cited from earlier work
forearm circulation = settings: concentrations of 200 μM in the forearm, Lauer et al.; cited from earlier work
[7] = 200 μM regional concentration, transit time less than 10 seconds

O=NO [sodium nitrite]
methemoglobin concentration after nitrite nebulization ([1]; baseline 2.1±0.1): 2.8±0.2%
duration of sustained vasodilation after discontinuation of inhalation ([1]; hypoxia continued 60 minutes after nebulization): more than 60 minutes
reduction (correction) of hypoxic-induced pulmonary hypertension [1]: about 60%
reduction (correction) of hypoxic-induced pulmonary hypertension ([1]; listed as nitrite): 60-70%
calculated blood level at which a protective effect was observed ([2]; 1.2 nmoles added nitrite): 600 nM
calculated systemic concentration of peak effect on AST and ALT ([2]; 48 nmoles added nitrite, 2 mL blood volume): 24 µM
hepatocellular injury (histopathology) at 24 hours of reperfusion ([2]; 24 μM (48 nmoles), versus saline and nitrate treated animals): significantly reduced
hepatocellular apoptosis (TUNEL) ([2]; 45 minutes ischemia, 24 hours reperfusion): significantly (p<0.001) attenuated
tissue injury in mice pre-treated with ZnDPBG (serum AST) ([2]; heme oxygenase 1 inhibitor pre-treatment, nitrite 24 μM): significantly limited tissue injury
near-physiological nitrite concentration with highly significant protective effects ([2]; hepatic I/R): 0.6 μM
serum elevations of liver transaminases AST and ALT ([2]; intraperitoneal during hepatic ischemia, 45 min ischemia, 5 h reperfusion, nitrite 1.2-480 nmoles, nitrate 48 nmoles): dose-dependently limited
cytoprotection in eNOS deficient mice (serum AST) ([2]; mouse, in vivo): significant nitrite cytoprotection
decrease in pulmonary artery pressure from hypoxic level [3]: ~60%
decrease in pulmonary artery pressure from hypoxic level ([3]; listed as nitrite): ~60% and 63+/−3%
cardiac output, arterial oxyhemoglobin saturation and methemoglobin levels ([3]; versus preceding ten minutes of hypoxia): did not change measurably
iron-nitrosylated-hemoglobin in the ipsilateral antecubital vein during nitrite infusion (hemoglobin; 36 μmol/min, at rest, baseline 55.7±11.4): 693.4 ± 216.9 nM
SNO-Hb produced across the forearm during exercise (hemoglobin; [7]): ~200 nM
iron-nitrosyl-hemoglobin produced across the forearm during exercise (hemoglobin; [7]): approximately 750 nM
decrease in pulmonary artery pressure from infusion baseline [4]: 23±6%
NO release on addition to oxygenated erythrocytes ([5]; 21% and 100% oxygen, versus deoxygenated erythrocytes): significantly less NO
rate of NO production in the 5 mL reaction volume ([5]; 100 and 200 μM nitrite, deoxygenated erythrocytes 660 and 1000 μM in heme, helium purged): 47 pM per second
NO release into the gas phase in buffer control ([5]; PBS, same conditions): no release
blood nitrite level after treatment [6]: 727 ± 40 nM
rate constant of nitrite reduction to NO and methemoglobin (deoxyhemoglobin): 2.9 M⁻¹ s⁻¹
vasodilatory effect in human forearm (forearm circulation): no vasodilatory effects
